Measurements reported in article PMC4887402 (Journal of inorganic biochemistry, 2015).

Target: Cytochrome P450 CYP3A4 (Homo sapiens, UniProt P08684)
Assay: UV-VIS spectral titration
Format: binding

Cytochrome P450 CYP3A4, sequence (P08684 whole entry): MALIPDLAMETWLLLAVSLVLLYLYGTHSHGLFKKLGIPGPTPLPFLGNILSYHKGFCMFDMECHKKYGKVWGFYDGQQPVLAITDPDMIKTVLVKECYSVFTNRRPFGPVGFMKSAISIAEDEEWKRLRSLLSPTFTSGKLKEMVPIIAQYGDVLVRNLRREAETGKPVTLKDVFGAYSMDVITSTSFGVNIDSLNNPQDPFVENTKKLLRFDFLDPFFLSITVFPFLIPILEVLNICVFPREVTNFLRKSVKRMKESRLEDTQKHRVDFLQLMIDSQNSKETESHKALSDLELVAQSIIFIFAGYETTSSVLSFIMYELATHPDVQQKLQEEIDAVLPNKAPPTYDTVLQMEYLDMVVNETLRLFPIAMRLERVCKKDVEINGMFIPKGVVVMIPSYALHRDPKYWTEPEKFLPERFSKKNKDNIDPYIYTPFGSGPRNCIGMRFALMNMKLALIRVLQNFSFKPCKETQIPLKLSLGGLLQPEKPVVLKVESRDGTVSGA

| Structure (SMILES) | Kd [µM] |
| --- | --- |
| C[C@]12CC[C@H]3[C@@H]([C@H](C/C=C\C[C@@H]4CC5=CC(=O)CC[C@]5(C)[C@H]5CC[C@]6(C)[C@@H](O)CC[C@H]6[C@H]45)CC4=CC(=O)CC[C@@]43C)[C@@H]1CC[C@@H]2O [cis-TST2] | 0.3 |
| C[C@]12CC[C@H]3[C@@H]([C@H](C/C=C/C[C@@H]4CC5=CC(=O)CC[C@]5(C)[C@H]5CC[C@]6(C)[C@@H](O)CC[C@H]6[C@H]45)CC4=CC(=O)CC[C@@]43C)[C@@H]1CC[C@@H]2O [trans-TST2] | 8 |
